# Measurements: patent US9567303B2, “Crystal of 5-hydroxy-1H-imidazole-4-carboxamide hydrate and pharmaceutical composition thereof” (FUJIFILM Corporation, priority 2011, dated 2017)
# Experiments:
# Assay type in all cases: physicochemical
# [1] = Observation of the color of the crystals (Test Example 3); conditions: crystals as obtained; hydrate
# Description: Observation of the color of the crystals obtained in Examples 5 and 8 and Comparative Examples 4 and 5 was made.
# [2] = Color difference of the crystal before and after storage, spectrophotometric colorimeter, reflection method (Test Examples 4 and 5); conditions: Table 6, stored 2 weeks, air atmosphere, 40° C., relative humidity 75%, double polyethylene bag
# Protocol: As described herein, the color difference of the crystal is measured by reflection method using a spectrocolorimeter.
# About 1 g of the test material was added in a storage bag, the storage bag being prepared by inserting one polyethylene bag into another polyethylene bag, each polyethylene bag having a thickness of 0.04 mm, each of the polyethylene bags was sealed, and the test material was stored for 2 weeks in conditions of air atmosphere at a temperature of 40° C. and a relative humidity of 75%. Color change of the crystal before and after the test was evaluated based on color difference.
# (§1) Measurement method: Reflection method
# [3] = Storage stability test under high temperature and high humidity conditions (Test Example 1); conditions: about 0.2 g in glass vial, one week, 60° C., relative humidity 75%; compared to Comparative Example 1
# Protocol: Storage stability test under high temperature and high humidity conditions
# As a test material, the crystals obtained from Example 3 and Comparative Example 1 were selected.
# Each of the test material (about 0.2 g) was added to a glass vial and stored for one week under the conditions including temperature of 60° C. and relative humidity of 75%.
# State of the crystal of Example 3 before starting the test is illustrated in FIG. 4 and state of the crystal of Example 3 after finishing the test is illustrated in FIG. 5. Further, state of the crystal of Comparative Example 1 before starting the test is illustrated in FIG. 6 and state of the crystal of Comparative Example 1 after finishing the test is illustrated in FIG. 7.
# [4] = Naked-eye observation of coloration after storage at 60° C. and 75% relative humidity; conditions: stored 2 weeks, relative humidity 75%
# Protocol: Compound of Example 9 after it has been stored for 2 weeks under the condition including a temperature of 60° C. and a relative humidity of 75% is illustrated in FIG. 11.
# [5] = Hue (H) in the Munsell color system of the crystals (Test Example 6); conditions: reflection method, crystals as obtained, hydrate
# Description: The Munsell color system is the color system developed by Albert H. Munsell. In the system, color is defined in terms of three attributions, hue, brightness and chroma. Hue (H) represents kinds of colors and, in the Munsell color system, hue is defined by using a total of 10 hues including 5 fundamental hues of red (R), yellow (Y), green (G), blue (B) and purple (P) and 5 intermediate hues of yellow-red (YR), yellow-green (YG), blue-green (BG), blue-purple (BP) and red-purple (RP). In addition, each hue of the 10 hues is further defined by using uniform color scales so that the maximum classification is 10. Hue (H) can be measured by using a measuring device such as a colorimeter or a color-difference meter.
# Hue (H) in the Munsell color system of the crystals of Examples 9, 11 to 14 was observed.
# Colorimeter: Spectrophotometric colorimeter SE 2000, manufactured by NIPPON DENSHOKU […] CO., LTD.
# as §1
smiles,measurement,setting,value
"NC(=O)c1nc[nH]c1O [Comparative Example 4, 5-hydroxy-1H-imidazole-4-carboxamide.3/4 hydrate]",Color of crystals,[1],Blue
"NC(=O)c1nc[nH]c1O [Comparative Example 5, 5-hydroxy-1H-imidazole-4-carboxamide.3/4 hydrate]",Color of crystals,[1],Blue
"NC(=O)c1nc[nH]c1O [Comparative Example 6, 5-hydroxy-1H-imidazole-4-carboxamide]",Color difference (ΔE),[2],25.6
"NC(=O)c1nc[nH]c1O [Comparative Example 7, 5-hydroxy-1H-imidazole-4-carboxamide.3/4 hydrate, reference compound]",Color difference (ΔE),[2]; hydrate,8.8
"NC(=O)c1nc[nH]c1O.O [Example 3, 5-hydroxy-1H-imidazole-4-carboxamide hydrate]",Coloration and storage stability of the crystal,[3],clearly less coloration and better storage stability
"NC(=O)c1nc[nH]c1O [Example 5, 5-hydroxy-1H-imidazole-4-carboxamide.3/4 hydrate]",Color of crystals,[1],Pale yellow
"NC(=O)c1nc[nH]c1O [Example 9, 5-hydroxy-1H-imidazole-4-carboxamide.3/4 hydrate]",Color difference (ΔE),[2]; hydrate,2.4
same,Coloration observed with a naked eye after storage,[4],no coloration with blue color
same,Hue (H),[5],3.1Y
"NC(=O)c1nc[nH]c1O [Example 11, 5-hydroxy-1H-imidazole-4-carboxamide-3/4 hydrate]",Hue (H),[5],3.8Y
"NC(=O)c1nc[nH]c1O [Example 12, 5-hydroxy-1H-imidazole-4-carboxamide.3/4 hydrate]",Hue (H),[5],4.4Y
"NC(=O)c1nc[nH]c1O [Example 13, 5-hydroxy-1H-imidazole-4-carboxamide.3/4 hydrate]",Color difference (ΔE),[2]; hydrate,5.1
same,Hue (H),[5],5.9Y
"NC(=O)c1nc[nH]c1O [Example 14, 5-hydroxy-1H-imidazole-4-carboxamide.3/4 hydrate]",Hue (H),[5],5.9Y
